Laboratory results reported in PubChem BioAssay (NCI).
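Cultured in 96-well plates, cells were exposed to test compound for 48 hours across five concentrations. TGI: concentration producing complete growth inhibition.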

Tests used:
Test in all cases: NCI anticancer screen, dose series, 48 h
786-0 renal = system: 786-0 renal
A498 renal = system: A498 renal
A549 NSCLC = system: A549 NSCLC
ACHN renal = system: ACHN renal
BT-549 breast = system: BT-549 breast
CAKI-1 renal = system: CAKI-1 renal
CCRF-CEM leukemia = system: CCRF-CEM leukemia
COLO 205 colon = system: COLO 205 colon
DU-145 prostate = system: DU-145 prostate
EKVX NSCLC = system: EKVX NSCLC
HCC-2998 colon = system: HCC-2998 colon
HCT-116 colon = system: HCT-116 colon
HCT-15 colon = system: HCT-15 colon
HOP-62 NSCLC = system: HOP-62 NSCLC
HOP-92 NSCLC = system: HOP-92 NSCLC
HT29 colon = system: HT29 colon
IGROV1 ovarian = system: IGROV1 ovarian
K-562 leukemia = system: K-562 leukemia
KM12 colon = system: KM12 colon
LOX IMVI melanoma = system: LOX IMVI melanoma
M14 melanoma = system: M14 melanoma
MALME-3M melanoma = system: MALME-3M melanoma
MCF7 breast = system: MCF7 breast
MDA-MB-231 breast = system: MDA-MB-231 breast
MDA-MB-435 = system: MDA-MB-435
MDA-N = system: MDA-N
MOLT-4 leukemia = system: MOLT-4 leukemia
NCI-H226 lung = system: NCI-H226 lung
NCI-H23 lung = system: NCI-H23 lung
NCI-H460 lung = system: NCI-H460 lung
NCI-H522 lung = system: NCI-H522 lung
NCI/ADR-RES ovarian = system: NCI/ADR-RES ovarian
OVCAR-3 ovarian = system: OVCAR-3 ovarian
OVCAR-4 ovarian = system: OVCAR-4 ovarian
OVCAR-5 ovarian = system: OVCAR-5 ovarian
OVCAR-8 ovarian = system: OVCAR-8 ovarian
PC-3 prostate = system: PC-3 prostate
RXF 393 renal = system: RXF 393 renal
SF-268 CNS = system: SF-268 CNS
SF-295 CNS = system: SF-295 CNS
SF-539 CNS = system: SF-539 CNS
SK-MEL-2 melanoma = system: SK-MEL-2 melanoma
SK-MEL-28 melanoma = system: SK-MEL-28 melanoma
SK-MEL-5 melanoma = system: SK-MEL-5 melanoma
SK-OV-3 ovarian = system: SK-OV-3 ovarian
SN12C renal = system: SN12C renal
SNB-19 CNS = system: SNB-19 CNS
SNB-75 CNS = system: SNB-75 CNS
SR leukemia = system: SR leukemia
SW-620 colon = system: SW-620 colon
T-47D breast = system: T-47D breast
TK-10 renal = system: TK-10 renal
U251 CNS = system: U251 CNS
UACC-257 melanoma = system: UACC-257 melanoma
UACC-62 melanoma = system: UACC-62 melanoma
UO-31 renal = system: UO-31 renal

Measured: TGI

CCCCOC(C)(C)/C=C/C(O)[C@](C)(O)[C@H]1[C@H](O)C[C@@]2(C)[C@@H]3CCc4c(cc(OC5OC(CO)C(O)C(O)C5O)c(O)c4C)C3(C)C(=O)C[C@]12C (stereo partly specified)
> 100 µM: all assays above
